This assay addresses CDK2/Cyclin E kinase (Homo sapiens, UniProt P24941). Put plainly: CDK2/Cyclin E Flashplate Assay: 96-Well Format. Particulars: streptavidin-coated flashplate; biotinylated-Rb peptide substrate 10 μM; 33P-ATP/ATP 1 μM; CDK2/Cyclin E 20 nM; 30 minutes at 30° C.; 1% DMSO. It is filed as biochemical. On the procedure: Functional Measurements for Determination of IC50-Values
CDK2/Cyclin E Flashplate Assay: 96-Well Format
A 96-well streptavidin-coated flashplate was used to assay potency of compounds according formula (I) against CDK2/Cyclin E kinase. To carry out the assay, biotinylated-Rb peptide substrate (Biotin-[…]-OH) was solubilized at 1 mM in kinase buffer (Hepes 50 mM, NaCl 1 mM, MgCl2 5 mM pH 7.5) as a stock solution conserved at −20° C. in aliquots of 110 μl. The day of the experiment, an aliquot of this solution was thawed and diluted to 14.3 μM in kinase buffer, containing 1 mM dithiothreitol (DTT) added in the buffer at the same time.
70 μl of this solution was added in each well of the flashplate in order to achieve a final concentration of 10 μM (100 μl reactionnal volume). Serial dilutions of inhibitors were prepared in DMSO from 10 mM stock solutions in order to achieve 1000 μM, 333.3 μM, 111.1 μM, 37.03 μM, 12.35 μM, 4.11 μM and 1.37 μM and all were rediluted in kinase buffer+DTT in order to achieve 100 μM, 33.3 μM, 11.1 μM, 3.7 μM, 1.24 μM, 0.41 μM and 0.14 μM in DMSO 10% buffer (vol/vol). 10 μl of each, of these solutions (or 10 μl of buffer+DTT for controls) were transferred to the testplate wells in order to achieve 10 μM, 3.33 μM, 1.11 μM, 0.37 μM, 0.12 μM, 0.04. μM and 0.01 μM as final concentrations, 1% DMSO (vol/vol). In each well, 10 μl of a solution of a mix of ^33PyATP/ATP were added in order to achieve 1 μM final concentration and a total of 1 μCi. The kinase reaction was initiated by addition of 10 μl of a solution at 200 nM of CDK2/Cyclin E in kinase buffer+DTT (or buffer+DTT for blanks) in order to achieve 20 nM final concentration. After addition of each reagent, the test-plate was shakened. The plates were incubated 30 minutes at 30° C. with a shaking at 650 rpm. At the end of the incubation, the plates were washed 3 times with 300 μl of PBS (without calcium and magnesium) per well. The incorporation of ^33P to the peptide was measured by scintillation counting.

For orientation: IC50 means the concentration that inhibits the measured activity by half. High values mean weaker potency, low ones greater potency. The compound `CCNc1nccc(-c2cc(C(=O)NCc3ccc(Cl)cc3)c(=O)[nH]n2)n1` [Example 190, 6-(2-Ethylamino-pyrimidin-4-yl)-3-oxo-2,3-dihydro-pyridazine-4-carboxylic acid 4-chloro-benzylamide] registered an IC50 of 18 nM.

`CNc1cc(-c2cc(C(=O)NCc3ccc(Cl)cc3)c(=O)[nH]n2)ccn1` [Example 206, 6-(2-Methylamino-pyridin-4-yl)-3-oxo-2,3-dihydro-pyridazine-4-carboxylicacid 4-chloro-benzylamide] had an IC50 of 157 nM.

Take `COC(=O)c1ccc(CNC(=O)c2cc(-c3ccncc3)n[nH]c2=O)cc1` [Example 217, 4-{[(3-Oxo-6-pyridin-4-yl-2,3-dihydro-pyridazine-4-carbonyl)-amino]-methyl}-benzoic acid methylester; compound withtrifluoro-acetic acid]: the IC50 was 24 nM.

Take `CCCCNc1nccc(-c2cc(C(=O)NCCCN3CCN(C)CC3)c(=O)[nH]n2)n1` [Example 218, 6-(2-Butylamino-pyrimidin-4-yl)-3-oxo-2,3-dihydro-pyridazine-4-carboxylic acid [3-(4-methyl-piperazin-1-yl)-propyl]-amide; compoundwith trifluoro-acetic acid]: inhibition was half-maximal at 107 nM (IC50).

On to `CCCCNc1nccc(-c2cc(C(=O)NCc3cccnc3)c(=O)[nH]n2)n1` [Example 219, 6-(2-Butylamino-pyrimidin-4-yl)-3-oxo-2,3-dihydro-pyridazine-4-carboxylic acid (pyridin-3-ylmethyl)-amide], for which the IC50 was determined as 15 nM.

Compound `CCCCNc1nccc(-c2cc(C(=O)NCCCc3cccnc3)c(=O)[nH]n2)n1` [Example 220, 6-(2-Butylamino-pyrimidin-4-yl)-3-oxo-2,3-dihydro-pyridazine-4-carboxylic acid (3-pyridin-3-yl-propyl)-amide] showed a concentration for half-maximal inhibition (IC50) of 12 nM.

The compound `COc1cc(-c2cc(C(=O)NCc3ccc(C(=O)O)cc3)c(=O)[nH]n2)ccc1O` [Example 225, 4-({[6-(4-Hydroxy-3-methoxy-phenyl)-3-oxo-2,3-dihydro-pyridazine-4-carbonyl]-amino}-methyl)-benzoic acid] showed an IC50 of 149 nM.

Values taken from patent US7462613B2, “Pyridazinone derivatives as pharmaceuticals and pharmaceutical compositions containing them” (SANOFI-AVENTIS Deutschland GmbH, priority 2002, dated 2008).
